Read-outs that look alike come from different tables or passages of the source.
Assay: Food effect PK study, two single oral 1000 mg doses of abiraterone acetate, fed (high fat) vs fasted
Type: in vivo, human
Settings: for concentration at 1.017 h: read-out: Abiraterone Concentration in plasma; for clearance: read-out: Cl F obs (converted); for Vd/F: read-out: Vz F obs; for concentration at 1.033 hr: sample time 1.033 hr; for concentration at 6 hr: sample time 6.000 hr; for concentration at 8 hr: sample time 8.000 hr; for concentration at 1 hr: sample time 1.000 hr; for concentration at 7.983 hr: sample time 7.983 hr
Method: To measure the amount of abiraterone and abiraterone acetate in the samples, these compounds were extracted from 100 uL human plasma using solid phase extraction (SPE) with cation mixed-mode polymer cartridges. Extracts were evaporated to dryness before reconstitution and analysis. Chromatography was carried out using a Luna™ C5 column (5 μm, 50 mm×2.1 mm id) with a gradient mobile phase consisting of 10 mM ammonium acetate and 2% propan-2-ol in acetonitrile. The flow rate was 0.2 mL/min and the run time 10.5 minutes. Abiraterone and abiraterone acetate were ionized using the electrospray interface in positive ion mode. Detection of analytes was via tandem mass spectrometry (MS/MS) in the multiple reaction monitoring (MRM) mode.
PK modeling was conducted using a non-compartmental model, extra vascular input for plasma with WinNonLin Software®. Pharmacokinetic parameters estimated in the model include:
Based on the above results, the PK parameters for a single dose of 1000 mg/day of abiraterone acetate were further studied in the 3 subjects who were administered the 1000 mg/day dose and in 3 additional subjects. Two single oral doses (1000 mg) of abiraterone acetate were administered separately, one concomitantly with food of high fat content and one in fasting state. The first single dose was administered on day −9 with PK blood samples being taken at 1, 2, 4, 6, 8, 24, 48 and 72 hours post dose. The second single dose was administered on day −3 with PK blood samples being taken at 1, 2, 4, 6, 8, 24 and 48 hours post dose for analysis.

[1] = human, plasma, oral, 1000 mg, Patient 13, 1000 mg, Fasted
[2] = human, plasma, oral, 1000 mg, Patient 13, 1000 mg, Fed
[3] = human, plasma, oral, 1000 mg, Patient 13, Fasted
[4] = human, plasma, oral, 1000 mg, Patient 13, Fed
[5] = human, plasma, oral, 1000 mg, Patient 14, 1000 mg, Fasted
[6] = human, plasma, oral, 1000 mg, Patient 14, 1000 mg, Fed
[7] = human, plasma, oral, 1000 mg, Patient 14, Fasted
[8] = human, plasma, oral, 1000 mg, Patient 14, Fed
[9] = human, plasma, oral, 1000 mg, Patient 15, 1000 mg, Fasted
[10] = human, plasma, oral, 1000 mg, Patient 15, 1000 mg, Fed
[11] = human, plasma, oral, 1000 mg, Patient 15, Fasted
[12] = human, plasma, oral, 1000 mg, Patient 15, Fed

C[C@]12CC[C@H](O)CC1=CC[C@@H]1[C@@H]2CC[C@]2(C)C(c3cccnc3)=CC[C@@H]12 [Abiraterone]
Abiraterone plasma levels with food in comparison with fasting (1000 mg, concomitantly with food vs fasting): higher | HL (Patient 13, 1000 mg, Fasted): 10.2 h | HL (Patient 13, 1000 mg, Fed): 10.7 h | concentration at 1.017 h (Patient 13, Fasted, 1000 mg, pre-dose (day −3)): 0.0 nM | concentration at 1.017 h (Patient 13, Fed, 1000 mg, pre-dose (day −9)): 0.0 nM | Abiraterone Concentration in plasma (Patient 13, Fed, 1000 mg, sample time 72.000 hr): BLLOQ^1 | HL (Patient 14, 1000 mg, Fasted): 6.6 h | HL (Patient 14, 1000 mg, Fed): 8.8 h | concentration at 1.017 h (Patient 14, Fasted, 1000 mg, pre-dose (day −9)): 0.0 nM | Abiraterone Concentration in plasma (Patient 14, Fasted, 1000 mg, sample time 48.217 hr): BLLOQ | concentration at 1.017 h (Patient 14, Fed, 1000 mg, pre-dose (day −3)): 0.0 nM | HL (Patient 15, 1000 mg, Fasted): 6.6 h | HL (Patient 15, 1000 mg, Fed): 8.0 h | Abiraterone Concentration in plasma (Patient 15, Fasted, 1000 mg, pre-dose (day −3)): BLLOQ | concentration at 1.017 h (Patient 15, Fed, 1000 mg, pre-dose (day −9)): 0.0 nM | Abiraterone Concentration in plasma (Patient 15, Fed, 1000 mg, sample time 2.000 hr): BLLOQ | Abiraterone Concentration in plasma (Patient 15, Fed, 1000 mg, sample time 70.100 hr): BLLOQ | HL (Patient 19, 1000 mg, Fasted): 8.0 h | HL (Patient 19, 1000 mg, Fed): 10.0 h | concentration at 1.017 h (Patient 19, Fasted, 1000 mg, pre-dose (day −9)): 0.0 nM | Abiraterone Concentration in plasma (Patient 19, Fasted, 1000 mg, sample time 71.950 hr): BLLOQ | concentration at 1.017 h (Patient 19, Fed, 1000 mg, pre-dose (day −3)): 0.0 nM | HL (Patient 20, 1000 mg, Fasted): 15.3 h | HL (Patient 20, 1000 mg, Fed): 18.3 h | concentration at 1.017 h (Patient 20, Fasted, 1000 mg, pre-dose (day −3)): 5.1 nM | Abiraterone Concentration in plasma (Patient 20, Fed, 1000 mg, pre-dose (day −9)): BLLOQ | HL (Patient 21, 1000 mg, Fasted): 12.6 h | HL (Patient 21, 1000 mg, Fed): 9.7 h | concentration at 1.017 h (Patient 21, Fasted, 1000 mg, pre-dose (day −9)): 0 nM | Abiraterone Concentration in plasma (Patient 21, Fed, 1000 mg, pre-dose (day −3)): BLLOQ | difference in mean drug levels between the dosing regimes (fed vs fasted) (extended cohort of six patients): Up to a two fold difference | clearance [1]: 12600 mL/min | Vd/F [1]: 11100 L | clearance [2]: 4240 mL/min | Vd/F [2]: 3920 L | AUC(0-inf) [3]: 3.78 µM·h | AUC(0-t) [3]: 3.7 µM·h | Cmax [3]: 548 nM | Tmax [3]: 1.03 h | concentration at 1.033 hr [3]: 548 nM | concentration at 2.017 hr (human, plasma, oral, 1000 mg, Patient 13, Fasted, sample time 2.017 hr): 500 nM | concentration at 4 hr (human, plasma, oral, 1000 mg, Patient 13, Fasted, sample time 4.000 hr): 304 nM | concentration at 6 hr [3]: 104 nM | concentration at 8 hr [3]: 89.4 nM | concentration at 24.667 hr (human, plasma, oral, 1000 mg, Patient 13, Fasted, sample time 24.667 hr): 34.1 nM | concentration at 48.117 hr (human, plasma, oral, 1000 mg, Patient 13, Fasted, sample time 48.117 hr): 5.8 nM | AUC(0-inf) [4]: 11.2 µM·h | AUC(0-t) [4]: 10.8 µM·h | Cmax [4]: 1180 nM | Tmax [4]: 4 h | concentration at 1 hr [4]: 130 nM | concentration at 2 h (human, plasma, oral, 1000 mg, Patient 13, Fed, sample time 2.000 hr): 675 nM | concentration at 4 h (human, plasma, oral, 1000 mg, Patient 13, Fed, sample time 4.000 hr): 1180 nM | concentration at 7.983 hr [4]: 392 nM | concentration at 23.983 hr (human, plasma, oral, 1000 mg, Patient 13, Fed, sample time 23.983 hr): 93.7 nM | concentration at 48.5 hr (human, plasma, oral, 1000 mg, Patient 13, Fed, sample time 48.500 hr): 26.8 nM | clearance [5]: 32600 mL/min | Vd/F [5]: 18500 L | clearance [6]: 4050 mL/min | Vd/F [6]: 3070 L | AUC(0-inf) [7]: 1.46 µM·h | AUC(0-t) [7]: 1.35 µM·h | Cmax [7]: 205 nM | Tmax [7]: 4.07 h | concentration at 1 hr [7]: 76.3 nM | concentration at 2 hr (human, plasma, oral, 1000 mg, Patient 14, Fasted, sample time 2.000 hr): 82.5 nM | concentration at 4.067 hr (human, plasma, oral, 1000 mg, Patient 14, Fasted, sample time 4.067 hr): 205 nM | concentration at 6.05 hr (human, plasma, oral, 1000 mg, Patient 14, Fasted, sample time 6.050 hr): 99.8 nM | concentration at 8.017 hr (human, plasma, oral, 1000 mg, Patient 14, Fasted, sample time 8.017 hr): 48.6 nM | concentration at 24.017 hr (human, plasma, oral, 1000 mg, Patient 14, Fasted, sample time 24.017 hr): 12.1 nM | concentration at 71.333 hr (human, plasma, oral, 1000 mg, Patient 14, Fasted, sample time 71.333 hr): 0 nM | AUC(0-inf) [8]: 11.8 µM·h | AUC(0-t) [8]: 11.6 µM·h | Cmax [8]: 2210 nM | Tmax [8]: 1.03 h | concentration at 1.033 hr [8]: 2210 nM | concentration at 2.033 hr (human, plasma, oral, 1000 mg, Patient 14, Fed, sample time 2.033 hr): 1770 nM | concentration at 4 hr (human, plasma, oral, 1000 mg, Patient 14, Fed, sample time 4.000 hr): 464 nM | concentration at 6 hr [8]: 516 nM | concentration at 7.983 hr [8]: 335 nM | concentration at 24.083 hr (human, plasma, oral, 1000 mg, Patient 14, Fed, sample time 24.083 hr): 79.7 nM | concentration at 47.7 hr (human, plasma, oral, 1000 mg, Patient 14, Fed, sample time 47.700 hr): 14.2 nM | clearance [9]: 18400 mL/min | Vd/F [9]: 10500 L | clearance [10]: 4610 mL/min | Vd/F [10]: 3190 L | AUC(0-inf) [11]: 2.59 µM·h | AUC(0-t) [11]: 2.37 µM·h | Cmax [11]: 420 nM | Tmax [11]: 2.98 h | concentration at 1 hr [11]: 8.7 nM | concentration at 2.983 hr (human, plasma, oral, 1000 mg, Patient 15, Fasted, sample time 2.983 hr): 420 nM | concentration at 3.967 hr (human, plasma, oral, 1000 mg, Patient 15, Fasted, sample time 3.967 hr): 242 nM | concentration at 5.983 hr (human, plasma, oral, 1000 mg, Patient 15, Fasted, sample time 5.983 hr): 131 nM | concentration at 8 hr [11]: 111 nM | concentration at 22.983 hr (human, plasma, oral, 1000 mg, Patient 15, Fasted, sample time 22.983 hr): 22.4 nM | AUC(0-inf) [12]: 10.3 µM·h | AUC(0-t) [12]: 10.1 µM·h | Cmax [12]: 1120 nM | Tmax [12]: 6.08 h | concentration at 1 hr [12]: 0 nM

— patent publication US20090124587A1, “METHODS FOR TREATING CANCER USING 17alpha-HYDROXYLASE/C17,20-LYASE INHIBITORS” (priority 2007, published 2009)
